A short description of one data set: logD at pH 7.4. The format is physicochemical. How it is done:
(§1) Physicochemical properties
(§2) The Physicochemical profiling (LogD, Solubility, Caco-2 cell permeability) was performed as previously
(§3) described.8 Cell viability was performed as described below.
(§4) Table S2. Pharmacokinetic Properties
(§5) Compound Structure logD, Solubility, Rat hepsa Human mics b

The next data set in a line: Solubility at pH 7.4. The format is physicochemical. The method, then:
as §1, §2, §3, §4, §5

The nature of data set [1]: Intrinsic clearance in human microsomes. The conditions noted are these: read-out: Human mics: intrinsic clearance in human microsomes. In kind it is in vitro ADME. The method, then:
(§6) All compounds (2–11, 25–29) were screened for their logD and solubility at pH 7.4 and for their intrinsic clearance in rat hepatocytes and human microsomes (Table S2). […] Replacing the basic amine side chain to a methyl substituent in the quinazolines (25–29) still retained good solubility (134 to over 1000 μM) but increased clearance in both rat hepatocytes and human microsomes. The logD was low for compounds with a basic amine side chain (2–11) and increased slightly when the amine was replaced with a methyl (25–29). As expected, additional substituents also affected the logD with the chloro-substituents increasing logD the most.
(§7) a Intrinsic clearance in rat hepatocytes ((μL/min)/10^6 cells).b Intrinsic clearance in human microsomes (μL/min/mg). […]

A short description of data set [2]: Intrinsic clearance in rat hepatocytes. The format is in vitro ADME. The method, then: as §6, §7
A further data set relates to c-MYC Pu22 G4 DNA. Nature of the data set: FRET melting assay, c-MYC Pu22 G4 DNA. The conditions noted are these: c-MYC Pu22 G4 DNA 0.2 μM; for increased thermal stability (ΔTm): 40 equivalences of added compound. The format is binding, human. The text has this: The synthesized compounds (2–11) were first analyzed using a Förster resonance energy transfer (FRET) assay (Figure 2A). This assay measures the compounds’ ability to affect the thermal stability of fluorescently labeled DNA, in this case, the c-MYC Pu22 G4 DNA (Table S1). […] The addition of one methyl group to the quinazoline core (3) provides almost twice as strong thermal stability compared to 2. The addition of a second methyl group (4) further increased stabilization, albeit modestly (by 0.5 °C). This slight increase between 3 and 4 could stem from the suboptimal positioning of the added methyl substituent in relation to the guanines on the G4 surface, compared to other positions on the quinazoline ring. […] Furthermore, the methyl-substituted (4) and the methoxy-substituted (6) display a similar G4 stabilization despite the strong electrostatic character of the methoxy substituent compared to the neutral methyl group, which further supports that these interactions are dispersion-driven. This conclusion is further supported by the fact that the replacement of the methoxy group in 6 with chlorine in 7 results in a very similar stabilization as 3, 4, and 6.
Synthetic labeled oligonucleotides for the FRET study were purchased from Eurofins Genomics. Stock solutions were prepared in MQ-water at 100 μM concentration. The sequences used are listed in Supporting Information Table S1. All the oligonucleotides except Pu22 were prefolded in 10 mM lithium cacodylate buffer (pH 7.4), with 10 mM KCl and 90 mM LiCl by heating for 10 min at 95 °C and then cooling in fridge for at least 1 h. Pu22 was folded in 10 mM lithium cacodylate buffer (pH 7.4), with 2 mM KCl and 98 mM LiCl.
The FRET occurs between two dyes (5′-FAM as donor and 3′-TAMRA as acceptor) linked at both extremities of a DNA oligonucleotide. When the oligonucleotides are folded into G4 structures, the donor and acceptor are in proximity, which results in an energy transfer from the donor to the acceptor. This process can be detected by a reduction in the fluorescence emission of the donor. Fluorescence emission of the donor is recovered when the temperature increment triggers the thermal denaturation of the G4 structure. The experiments were performed in a Bio-Rad CFX96 real-time PCR device at temperatures from 10 to 95 °C at 1.5 °C/m heating rate using a 492 nm excitation wavelength and a 516 nm detection wavelength in 96-well plates. […] The stabilization (ΔTm) is calculated from comparison of Tm of the fluorescently labeled oligonucleotide in the presence or absence of the ligand. […]
The fluorescence resonance energy transfer (FRET) occurs between two dyes (5'-FAM as donor and 3'- TAMRA as acceptor) linked at both extremities of a DNA oligonucleotide. […]

For data set [3], the system named is Tba (thrombin binding aptamer). Nature of the data set: FRET melting assay, Tba G4 DNA. To be noted: 5 at 2 μM, 27 at 5 μM; G4 DNA 0.2 μM. How it is done: Additional G4 DNA structures were examined in the FRET melting assay to study the selectivity of compound (5) and its methylated analogue (27) toward different G4 structures. Compounds 5 and 27 were tested at 2 and 5 μM, respectively, for their abilities to increase the thermal stability of G4 DNA structures (Figure 6C and Table S1). Overall, this confirms that compound 5 is a much stronger G4 stabilizer, as compared to 27.
Synthetic labeled oligonucleotides for the FRET study were purchased from Eurofins Genomics. Stock solutions were prepared in MQ-water at 100 μM concentration. The sequences used are listed in Supporting Information Table S1. All the oligonucleotides except Pu22 were prefolded in 10 mM lithium cacodylate buffer (pH 7.4), with 10 mM KCl and 90 mM LiCl by heating for 10 min at 95 °C and then cooling in fridge for at least 1 h. […]
The FRET occurs between two dyes (5′-FAM as donor and 3′-TAMRA as acceptor) linked at both extremities of a DNA oligonucleotide. […] This process can be detected by a reduction in the fluorescence emission of the donor. Fluorescence emission of the donor is recovered when the temperature increment triggers the thermal denaturation of the G4 structure. […] The stabilization (ΔTm) is calculated from comparison of Tm of the fluorescently labeled oligonucleotide in the presence or absence of the ligand.

Converted amounts (≈) assume the structure as drawn. A value given as a limit tells only on which side of the number the result lay.

As for `Cc1cc(NCCCN(C)C)nc(Nc2ncc3ccccc3n2)n1` [Compound 2, N4-(3-(Dimethylamino)propyl)-6-methyl-N2-(quinazolin-2-yl)pyrimidine-2,4-diamine], the logD in the data set “logD at pH 7.4” is -0.1. The compound further yielded a solubility in the data set “Solubility at pH 7.4” of more than 1000 µM. For the same compound, the microsomal CLint in data set [1] is less than 3 µL/min/mg. Also, the “Rat heps: intrinsic clearance in rat hepatocytes” value (from here on “Rat heps: intrinsic clearance”) in data set [2] was 8 (μL/min)/106 cells. In addition, the “increased thermal stability (ΔTm)” value with c-MYC Pu22 G4 DNA is 7.5 °C.
With `Cc1cc(C)c2nc(Nc3nc(C)cc(NCCCN(C)C)n3)nc(C)c2c1` [Compound 5, N4-(3-(Dimethylamino)propyl)-6-methyl-N2-(4,6,8-trimethylquinazolin-2-yl)pyrimidine-2,4-diamine], the logD in the data set “logD at pH 7.4” was found to be 0.6. In the data set “Solubility at pH 7.4”, this compound displayed a solubility of 962 µM (≈ 365 µg/mL). In addition, the microsomal CLint in data set [1] is less than 3 µL/min/mg. The “Rat heps: intrinsic clearance” value in data set [2] is reported as 1 (μL/min)/106 cells. Moreover, the “effect on thermal stability of Tba” value in data set [3] is on record as “Neither compound affected the thermal stability”. In the data set on c-MYC Pu22 G4 DNA, the “increased thermal stability (ΔTm)” value is 20 °C.
Compound `Cc1cc(C)c2nc(Nc3nc(C)cc(C)n3)nc(C)c2c1` [Compound 27, N-(4,6-Dimethylpyrimidin-2-yl)-4,6,8-trimethylquinazolin-2-amine] came in with a logD in “logD at pH 7.4” of 2.9. In the data set “Solubility at pH 7.4”, the solubility worked out at 264 µM (≈ 77.5 µg/mL). In data set [1], the microsomal CLint came out at 140 µL/min/mg. Moreover, in data set [2], the “Rat heps: intrinsic clearance” value was 27 (μL/min)/106 cells. Besides, the “effect on thermal stability of Tba” value in data set [3] is on record as “Neither compound affected the thermal stability”. For the same compound, the “increase in thermal stability (ΔTm)” value in the data set with c-MYC Pu22 G4 DNA (compound 8 μM) stood at 12 °C.

For orientation: logD means the decadic logarithm of the distribution of all forms, ionised or not, between an organic phase and buffer at a given pH. The term solubility denotes the concentration that dissolves in the medium under given conditions.

The values are drawn from publication PMC10860144, “Exploring the Dispersion and Electrostatic Components in Arene–Arene Interactions between Ligands and G4 DNA to Develop G4-Ligands” (Journal of Medicinal Chemistry, 2024).
